Test results published in patent US11384118B2, “CAR-T cells targeting glioma stem cells for the treatment of glioblastoma multiforme” (H. Lee Moffitt Cancer Center and Research Institute, Inc., priority 2018, dated 2022).
“Also recorded” adds a separate entry of the source. Values belong to the substance of their own block, whether it stands above or below them. Ends that are not written are not given here.

What was measured:
[1] = tested on: patient-derived glioma stem cells; assay: IFNG release assay following overnight coculture of CAR-T cells with GSC; format: cell-based, human; conditions: GSC vs DGC of same patient, H2110 and media negative controls
Excerpt: Capitalizing on the unique ability of peptides EYA and VAV to bind to GSC, a series of chimeric antigen receptors (CARs) were designed that display a peptide derived from the EYA and VAV sequences, arranged in tandem, at the N-terminus of the CAR molecule. The role of the tandem peptides in the N-terminus of the CAR is to detect GSC, which in turn will activate the T cell through the CD3ζ domain in the C-terminus. Most CARs utilize antibody-derived molecules (Abate-Daga D, L et al. Hum Gene Ther. 2014 25(12):1003-12), or natural ligands (Brown C E, et al. N Engl J Med. 2016 375(26):2561-9; Brown C E, et al. Clin Cancer Res. 2012 18(8):2199-209) to receptors expressed by target cells to perform this function. Seven CAR constructs were generated based on combinations of peptides EYA and VAV (VAV-EYA and EYA-VAV), and of VAV plus five additional peptides (termed 1-VAV, 2-VAV, 3-VAV, 4-VAV, and 5-VAV) identified in the biopanning assays (FIG. 7). CAR cDNA was cloned into a retroviral expression vector used for clinical CAR-T cell manufacture, called pMSGV1, and the resulting constructs were used to transduce human primary T cells. The expression of the CAR molecules was first analyzed by Western blot against the CD3ζ chain of the CAR. Six of the seven CAR designs were expressed in transduced cells (FIG. 8). […]

[2] = tested on: GSCs; assay: Binding of Cy5.5-conjugated peptide to GSCs / GSC tumor sphere; design: species or system human; conditions: peptide conjugated with Cyanine 5.5
Protocol: Cells were dissociated to singles with TrypLE Express (Thermo Fisher Scientific) and recovered in Neurobasal medium at 37° C. for 1-2 hours. Before the incubation with primary antibodies, cells were blocked with 2% BSA in PBS for 30-50 minutes. Primary antibodies were treated at 4° C. for 40-90 minutes. Anti-EYA1 antibody (Aviva System Biology, ARP32434_P050), anti-IgG control antibody, 5(6)-carboxyfluorescein-conjugated peptide AWEFYFP, and cyanine 5.5-conjugated peptide AWEFYFP were used as primary antibodies. After washing with 1% BSA in PBS, cells were incubated with Alexa Fluor 488-conjugated goat anti-rabbit IgG antibody (Invitrogen, A11008) at 4° C. for 40 minutes. Unstained- or secondary antibody treated-cells without a primary antibody were used as negative controls. Labeled cells were analyzed by flow cytometry.

[3] = tested on: intracranial glioma patient-derived xenografts; assay: In vivo imaging after tail vein injection, intracranial xenograft; design: species or system NSG mice
Excerpt: (§1) Cyanine 5.5-conjugated peptide AWEFYFP (SEQ ID NO:2) and control peptide GGGSGGG (SEQ ID NO:33) were synthesized by LifeTein, LCC. (Hillsborough, N.J., USA). GSCs were implanted into subcutaneously (5×10^5 cells) or intracranially (5×10^4 cells) into 4 weeks old NSG mice under a Cleveland Clinic Foundation Institutional Animal Care and Use Committee approved protocol. After 4 weeks, cyanine 5.5-conjugated peptides were delivered into the mice via intravenous injection. Signals from injected peptides were monitored by fluorescence channel of IVIS Spectrum CT In Vivo Imaging System (PerkinElmer, USA) for 72 hours.

[4] = tested on: glioblastoma xenografted into the subcutaneous flank; assay: In vivo imaging after tail vein injection, subcutaneous flank xenograft; design: species or system NSG mice
Excerpt: as §1

[5] = tested on: glioblastoma tissue; assay: Fluorescent peptide staining of glioblastoma and normal brain tissue; format: binding, human; conditions: peptide conjugated with fluorescein
Protocol: Patient brain tissues were obtained from Cleveland Clinic Tissue Bank. Cells (GSC and DGC) or frozen-sectioned tissues (glioblastoma and normal brain) were fixed in 4% paraformaldehyde and permeabilized with 0.1% Triton X-100 and stained using following primary antibodies: EYA1 (Aviva System Biology, ARP32434_P050), SOX2 (R&D system, MAB2018), vWF (Abcam, ab68548), CD31 (Santa Cruz Biotechnology, sc-1506), MYC (Cell signaling, 5605), and SIX1 (Abcam, ab84329) primary antibodies were incubated overnight at 4° C., followed species appropriate secondary antibodies with incubation for 3.5 hours at room temperature. Nuclei were stained with DAPI, and slides were then mounted with FluorSave (Calbiochem, 345789). Images were taken using a Leica DM4000 uplight microscopy. For DAB staining, tissues were incubated with rabbit anti-EYA1 or anti-c-Myc antibody overnight at 4° C., followed goat anti-rabbit biotinylated secondary antibody with incubation for 3.5 hours at room temperature. After incubation with antibodies, tissues were stained using VECTASTAIN Elite ABC HRP Kit (VECTOR LABORATORIES, PK-6100) and DAB Peroxidase Substrate Kit (VECTOR LABORATORIES, SK-4100) according to the manufacturer's instructions. After counterstaining with 50% hematoxylin, images were taken. […]

Substance: 5-VAV: CAR with peptide #5 linked to peptide VAV (binding agent SEQ ID NO:27) (NWYWVYPGGGGSGGGGSGGGGSSSQPFWSGSTSGSGKPGSGEGSTKG) [Peptide 5-VAV]
IFNG release / recognition of GSC [1]: specific recognition of GSC (but not differentiated glioma cells, DGC, derived from the same patient)

binding to GSCs ([2]; listed as GBM-IC2 conjugated with Cy5.5): preferential binding to GSC tumor sphere
Substance: GBM-IC2-Cy5.5: GBM-IC2 peptide conjugated with Cyanine 5.5, a near infrared marker (AWEFYFP; also: Cy5.5 conjugate)
binding to GSCs [2]: binding to GSCs in a concentration-dependent manner
histological analysis of peptide signal in intracranial tumor ([3]; ex vivo brain sections): positive fluorescent signal in the intracranial tumor samples
tumor targeting by imaging, intracranial xenograft ([3]; tail vein injection, imaging 20 minutes post-injection, in vivo and ex vivo): strong specificity of binding of tumor in the intracranial cavity; also recorded: specific targeting of the intracranial tumor
penetration of the BBB ([3]; tail vein injection, intracranial xenograft): penetrate the BBB
earliest time of tumor binding after injection ([4]; flank xenograft): 20 min
tumor targeting by imaging, flank xenograft ([4]; in vivo and ex vivo): high specificity of binding to the tumor; also recorded: specific targeting of the tumor four hours after injection in a dose dependent manner

Substance: AWEFYFP (also: carboxyfluorescein conjugate) [GBM-IC2, used fluorescein-conjugated for staining]
binding to glioblastoma tissue relative to normal brain [5]: specifically bound to glioblastoma tissue, relative to normal brain; also recorded: preferential binding to glioblastoma tissue
binding to SOX2 expressing cells (co-staining with GSC marker SOX2) ([5]; double staining with anti-SOX2): greater binding of GBM-IC2 to SOX2 expressing cells; also recorded: co-staining with SOX2
